Blank lines part the entries; values can stand above or below the compound they belong to. Active and inactive are the calls of the source. No cut-off for these calls is given here.
Experiments:
[1] = target: T1, Tryptophan 5-hydroxylase 1 (Rattus norvegicus, UniProt P09810); assay: Inhibition of TPH1 in RBL cells assessed as inhibition of serotonin biosynthesis; type: cell-based
T1 sequence (P09810 whole entry): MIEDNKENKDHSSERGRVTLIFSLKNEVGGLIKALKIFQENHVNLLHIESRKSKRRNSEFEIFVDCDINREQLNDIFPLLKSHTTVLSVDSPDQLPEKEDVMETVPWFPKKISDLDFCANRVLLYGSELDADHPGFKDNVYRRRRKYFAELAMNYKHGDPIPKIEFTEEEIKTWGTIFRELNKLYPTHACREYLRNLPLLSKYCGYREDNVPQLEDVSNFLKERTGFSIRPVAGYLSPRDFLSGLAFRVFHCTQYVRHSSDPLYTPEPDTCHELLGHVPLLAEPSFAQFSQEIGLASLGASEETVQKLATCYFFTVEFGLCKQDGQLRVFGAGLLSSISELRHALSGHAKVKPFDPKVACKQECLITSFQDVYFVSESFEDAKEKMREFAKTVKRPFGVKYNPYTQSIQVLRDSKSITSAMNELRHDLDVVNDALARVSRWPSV

[2] = target: T2, Tryptophan 5-hydroxylase 1 (Homo sapiens, UniProt P17752); assay: Inhibition of TPH1
T2 sequence (P17752 whole entry): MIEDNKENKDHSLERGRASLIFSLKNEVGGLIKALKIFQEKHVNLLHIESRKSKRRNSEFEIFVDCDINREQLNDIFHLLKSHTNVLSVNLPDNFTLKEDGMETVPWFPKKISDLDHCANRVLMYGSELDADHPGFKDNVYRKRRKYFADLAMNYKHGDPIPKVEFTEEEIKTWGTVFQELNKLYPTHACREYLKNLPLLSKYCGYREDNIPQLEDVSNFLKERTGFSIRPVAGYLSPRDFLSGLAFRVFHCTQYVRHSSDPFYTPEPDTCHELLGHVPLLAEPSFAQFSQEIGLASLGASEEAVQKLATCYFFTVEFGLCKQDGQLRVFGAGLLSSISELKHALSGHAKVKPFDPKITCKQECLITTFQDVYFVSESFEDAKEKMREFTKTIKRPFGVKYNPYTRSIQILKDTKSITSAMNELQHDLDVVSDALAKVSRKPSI

RBL = assay: Ratio of EC50 for TPH1 in RBL cells to IC50 for TPH1; type: cell-based
Mus musculus [3] = assay: Reduction of 5HT level in mouse brain at 90 mg/kg, po twice a day after 3 days; type: functional, organism-based; design: dose 90 mg/kg
Mus musculus [4] = assay: Reduction of 5HT level in mouse brain at 45 mg/kg, po twice a day after 3 days; type: functional, organism-based; design: dose 45 mg/kg
Mus musculus [5] = assay: Reduction of 5HT level in mouse intestine at 90 mg/kg, po twice a day after 3 days; type: functional, organism-based; design: dose 90 mg/kg
Mus musculus [6] = assay: Reduction of 5HT level in mouse intestine at 45 mg/kg, po twice a day after 3 days; type: functional, organism-based; design: dose 45 mg/kg
[7] = Half life in C57 albino mouse at 10 mg/kg, po; type: ADME, organism-based; design: dose 10 mg/kg, route oral; details: in vivo
[8] = AUC (0 to 24 hrs) in C57 albino mouse at 10 mg/kg, po; type: ADME, organism-based; design: time < 24 hr, dose 10 mg/kg, route oral; details: plasma
Mus musculus [9] = assay: Reduction of 5HT level in mouse intestine at 30 mg/kg, po twice a day; type: functional; design: scale not given: the % may be the effect or the level left
Mus musculus [10] = assay: Reduction of 5HT level in mouse intestine at 90 mg/kg, po twice a day; type: functional; design: scale not given: the % may be the effect or the level left
[11] = Drug level in C57 albino mouse brain at 10 mg/kg, po after 6 hrs; type: ADME, organism-based; design: dose 10 mg/kg, route oral; details: read-out: Drug uptake
Mus musculus [12] = assay: Reduction of 5HT level in mouse colon at 90 mg/kg, po twice a day; type: functional; design: scale not given: the % may be the effect or the level left
Mus musculus [13] = assay: Reduction of 5HT level in mouse colon at 30 mg/kg, po twice a day; type: functional; design: scale not given: the % may be the effect or the level left
[14] = Ratio of drug level in brain to plasma in C57 albino mouse at 10 mg/kg, po after 2 hrs; type: ADME, organism-based; design: dose 10 mg/kg, route oral; details: read-out: BPR
[15] = Half life in C57 albino mouse at 1 mg/kg, iv; type: ADME, organism-based; design: dose 1 mg/kg, route intravenous; details: in vivo
[16] = Tmax in C57 albino mouse at 10 mg/kg, po; type: ADME, organism-based; design: dose 10 mg/kg, route oral; details: in vivo
[17] = Ratio of drug level in brain to plasma in C57 albino mouse at 10 mg/kg, po after 6 hrs; type: ADME, organism-based; design: dose 10 mg/kg, route oral; details: read-out: BPR
[18] = Oral bioavailability in C57 albino mouse at 10 mg/kg; type: ADME, organism-based; details: in vivo
[19] = Volume of distribution at steady state in C57 albino mouse 1 mg/kg, iv; type: ADME, organism-based; design: dose 1 mg/kg, route intravenous; details: in vivo, read-out: Vdss
[20] = Drug level in C57 albino mouse brain after 24 hrs; type: ADME, tissue-based; details: read-out: Drug uptake
[21] = Cmax in C57 albino mouse at 10 mg/kg, po; type: ADME, organism-based; design: dose 10 mg/kg, route oral; details: in vivo
[22] = AUC (0 to 6 hrs) in C57 albino mouse at 1 mg/kg, iv; type: ADME, organism-based; design: time < 6 hr, dose 1 mg/kg, route intravenous; details: plasma
[23] = AUC (0 to infinity) in C57 albino mouse at 10 mg/kg, po; type: ADME, organism-based; design: time infinity, dose 10 mg/kg, route oral; details: plasma
[24] = AUC (0 to infinity) in C57 albino mouse at 1 mg/kg, iv; type: ADME, organism-based; design: time infinity, dose 1 mg/kg, route intravenous; details: plasma
[25] = Clearance in C57 albino mouse plasma at 1 mg/kg, iv; type: ADME, organism-based; design: dose 1 mg/kg, route intravenous
[26] = Drug level in C57 albino mouse brain at 10 mg/kg, po after 2 hrs; type: ADME, organism-based; design: dose 10 mg/kg, route oral; details: read-out: Drug uptake

SMILES: Cc1cccc(-c2ccccc2C(Oc2cc(-c3ccc(C[C@H](N)C(=O)O)cc3)nc(N)n2)C(F)(F)F)c1 (some centres not stated)
EC50 [1]: 56 nM
IC50 [2]: 70 nM

SMILES: Cc1ccccc1-c1ccccc1CNc1cnc(-c2ccc(C[C@H](N)C(=O)O)cc2)cn1
IC50 [2]: 40 nM

SMILES: N[C@@H](Cc1ccc(-c2cnc(NCc3ccc4ccccc4c3)cn2)cc1)C(=O)O
IC50 [2]: 13 nM

SMILES: C[C@@H](Nc1cc(-c2ccc(C[C@H](N)C(=O)O)cc2)nc(N)n1)c1ccc2ccccc2c1
EC50 [1]: 1700 nM
IC50 [2]: 32 nM

SMILES: Nc1nc(OC(c2ccc3ccccc3c2)C(F)(F)F)cc(-c2ccc(C[C@H](N)C(=O)O)cc2)n1 (some centres not stated)
Ratio (RBL): 3
EC50 [1]: 510 nM
IC50 [2]: 180 nM

SMILES: COc1ccc(CNc2cnc(-c3ccc(C[C@H](N)C(=O)O)cc3)cn2)cc1OC1CCCC1
IC50 [2]: 45 nM

SMILES: N[C@@H](Cc1ccc(-c2cnc(NCc3cnc4ccccc4c3)cn2)cc1)C(=O)O
IC50 [2]: 190 nM

SMILES: C[C@@H](Nc1nc(N)nc(N2CCC(C[C@H](N)C(=O)O)CC2)n1)c1ccc2ccccc2c1
IC50 [2]: 770 nM

SMILES: N[C@@H](Cc1ccc(-c2cnc(NCC3CCc4ccccc4C3)cn2)cc1)C(=O)O (some centres not stated)
IC50 [2]: 46 nM

SMILES: Nc1nc(OC(c2ccccc2-c2ccco2)C(F)(F)F)cc(-c2ccc(C[C@H](N)C(=O)O)cc2)n1 (some centres not stated)
EC50 [1]: 48 nM
IC50 [2]: 24 nM

SMILES: N[C@@H](Cc1ccc(-c2cnc(NCc3ccoc3)cn2)cc1)C(=O)O
IC50 [2]: 960 nM

SMILES: N[C@@H](Cc1ccc(-c2cnc(NCc3ccccn3)cn2)cc1)C(=O)O
IC50 [2]: 6150 nM

SMILES: N[C@@H](Cc1ccc(-c2cnc(NCc3ccc(-c4ccccc4)cc3)cn2)cc1)C(=O)O
IC50 [2]: 44 nM

SMILES: Nc1nc(OC(c2sccc2-c2ccco2)C(F)(F)F)cc(-c2ccc(C[C@H](N)C(=O)O)cc2)n1 (some centres not stated)
EC50 [1]: 63 nM
IC50 [2]: 54 nM

SMILES: N[C@@H](Cc1ccc(-c2cnc(NCC3CCCCC3)cn2)cc1)C(=O)O
IC50 [2]: 240 nM

SMILES: Nc1nc(OC(c2ccccc2-n2ccc(C(F)(F)F)n2)C(F)(F)F)cc(-c2ccc(C[C@H](N)C(=O)O)cc2)n1 (some centres not stated)
EC50 [1]: 70 nM
IC50 [2]: 29 nM

SMILES: COc1ccc(CNc2cnc(-c3ccc(C[C@H](N)C(=O)O)cc3)cn2)cc1OC
IC50 [2]: 69 nM

SMILES: CCn1c2ccccc2c2cc(CNc3cnc(-c4ccc(C[C@H](N)C(=O)O)cc4)cn3)ccc21
IC50 [2]: 31 nM

SMILES: CCn1c2ccccc2c2cc(CNc3ccc(-c4ccc(C[C@H](N)C(=O)O)cc4)nc3)ccc21
IC50 [2]: > 10000 nM

SMILES: CCOC(=O)[C@@H](N)Cc1ccc(-c2cc(OC(c3ccc(-c4cccc(F)c4)cc3)C(F)(F)F)nc(N)n2)cc1 (some centres not stated)
Activity (Mus musculus [3]): Active
Activity (Mus musculus [4]): inactive
Activity (Mus musculus [5]): Active
Activity (Mus musculus [6]): Active

SMILES: Nc1nc(OC(c2ccc(-c3cccc(F)c3)cc2)C(F)(F)F)cc(-c2ccc(C[C@H](N)C(=O)O)cc2)n1 (some centres not stated)
half-life [7]: 5.98 h
AUC(0-t) at 24 h [8]: 6.09 µM·h
Activity (Mus musculus [9]): 55%
Activity (Mus musculus [10]): 70%
concentration at 6 h [11]: 6.15 nM
Activity (Mus musculus [12]): 36%
Activity (Mus musculus [13]): 24%
Kp at 2 h [14]: 0.01
half-life [15]: 3.26 h
Tmax [16]: 3.25 h
Kp at 6 h [17]: 0.01
bioavailability [18]: 7.6%
Vd [19]: 0.73 L/kg
concentration at 24 h [20]: 0.38 nM
Cmax [21]: 641 nM
AUC(0-t) at 6 h [22]: 6.2 µM·h
AUC(0-inf) [23]: 6.5 µM·h
AUC(0-inf) [24]: 8.54 µM·h
clearance [25]: 3.33 mL/min/kg
concentration at 2 h [26]: 6.05 nM

Next, values leading:

IC50 [2]: 200 nM
SMILES: C[C@@H](Nc1nc(N)nc(-c2ccc(CC(N)C(=O)O)c(F)c2)n1)c1ccc2ccccc2c1 (some centres not stated)

IC50 [2]: 24 nM
SMILES: Nc1nc(NCc2ccc3ccccc3c2)nc(-c2ccc(C[C@H](N)C(=O)O)cc2)n1

IC50 [2]: 890 nM
SMILES: C[C@@H](Nc1nc(N)nc(-c2ccc(CC(N)C(=O)O)nc2)n1)c1ccc2ccccc2c1 (some centres not stated)

IC50 [2]: 970 nM
SMILES: COc1ccc(CNc2ccc(-c3ccc(C[C@H](N)C(=O)O)cc3)nn2)cc1OC1CCCC1

IC50 [2]: 12600 nM
SMILES: C[C@@H](Nc1nc(N)nc(-c2ccn(C[C@H](N)C(=O)O)n2)n1)c1ccc2ccccc2c1

IC50 [2]: 3770 nM
SMILES: C[C@@H](Nc1nc(N)nc(-c2ccc(C(N)CC(=O)O)cc2)n1)c1ccc2ccccc2c1 (some centres not stated)

IC50 [2]: > 10000 nM
SMILES: COc1ccc(CNc2ccc(-c3ccc(C[C@H](N)C(=O)O)cc3)cc2)cc1OC1CCCC1

IC50 [2]: 11100 nM
SMILES: C[C@@H](Nc1nc(N)nc(-c2ccc(CC(C)(N)C(=O)O)cc2)n1)c1ccc2ccccc2c1 (some centres not stated)

EC50 [1]: 11000 nM
IC50 [2]: 380 nM
SMILES: C[C@@H](Oc1cc(-c2ccc(C[C@H](N)C(=O)O)cc2)nc(N)n1)c1ccc2ccccc2c1

IC50 [2]: > 11000 nM
SMILES: C[C@@H](Nc1nc(N)nc(-c2cccc(CC(N)C(=O)O)c2)n1)c1ccc2ccccc2c1 (some centres not stated)

IC50 [2]: 110 nM
SMILES: N#Cc1ccc(CNc2cnc(-c3ccc(C[C@H](N)C(=O)O)cc3)cn2)cc1

Reference: ChEMBL document CHEMBL1155012, “Modulation of peripheral serotonin levels by novel tryptophan hydroxylase inhibitors for the potential treatment of functional gastrointestinal disorders” (J Med Chem, 2008)
